Assay results reported in US8642656B2, “Calixarene-based peptide conformation mimetics, methods of use, and methods of making” (priority 2004, dated 2014).
“Also recorded” adds a separate entry of the source. Like-named read-outs stand apart in the source and are kept apart here.

Columns and labels:
[1] = tested on: LPS from E. coli serotype 0111:B4; assay: LPS neutralization assay (Limulus amoebocyte lysate, QCL-1000); format: biochemical; settings: read-out: IC50 values (μM) for LPS binding, E. coli 0111:B4
Method in brief: (§1)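 Neutralization of endotoxin was measured as loss of LAL proenzyme activation driven by 0.04 units LPS, read as pNA at 405-410 nm; IC50 from sigmoidal fit.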

[2] = tested on: LPS from E. coli serotype 055:B5; assay: as above; format: biochemical
Method in brief: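 Compounds were tested for inhibition of LPS-triggered activation of the Limulus amoebocyte lysate proenzyme, which cleaves a chromogenic substrate to release p-nitroaniline read at 405-410 nm. Each LPS was used at 0.04 units. IC50 came from sigmoidal dose-response fits.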

[3] = tested on: MA148 human ovarian carcinoma; assay: MA148 tumor growth model in athymic mice; format: in vivo; settings: for tumor growth inhibition: MA148, end of 28 days; for MA148 tumor growth (in words): tumor-bearing mice
Procedure: Female athymic nude mice (nu/nu, 5-6 weeks old) were used. These mice were purchased from the National Cancer Institute and allowed to acclimatize to local conditions for at least one week. Animals were given water and standard chow ad libitum, and were kept on a 12-hour light/dark cycle. All experiments were approved by the University of Minnesota Research Animal Resources ethical committee. Mice were randomized and split into three groups: 1) human serum albumin (10 mg/kg/day), 2) βpep-25 (10 mg/kg/day) and 3) peptide mimetic agent (5 mg or 10 mg/kg/day). Test compounds were diluted in DMSO and administered using osmotic mini-pumps (Durect, Cupertino, Calif.). Exponentially growing MA148 human ovarian carcinoma cells, kindly provided by Prof. Ramakrishnan (R. P. Dings et al., Cancer Res., 63, 382-385 (2003)) or B16 mouse melanoma cells were cultured in RPM1 1640 medium (Life Technologies, Grand Island, N.Y.). This medium was supplemented with 10% fetal bovine serum and 1% penicillin/streptomycin (Cellgro, Mediatech, Washington, D.C.) at 37° C and 5% CO2. One hundred microliters (100 μL) of this tumor cell suspension (2×10^7 cells/ml) was then injected subcutaneously into the right flank of each mouse. Pumps were implanted into the left flank of mice for subcutaneous administration of compound over a 28-day treatment span.
Two variants of this model were used: prevention and intervention. For the prevention variant, treatment was initiated at the time of inoculation with MA148 cells. For the intervention variant, tumors were allowed to grow to an average size of 50 mm^3 (usually day 7 post inoculation) before treatment was initiated. With either variant, animals were randomized prior to the initiation of treatment. Treatment was administered via osmotic mini-pumps (Durect, Cupertino, Calif.), which were implanted subcutaneously in the left flank of mice. Concentrated solutions of βpep-25 or DBF analogs were formulated such that the 28-day treatment period would be covered by implantation of a single pump. In each study, control groups of animals were administered either PBS or PBS containing human serum albumin.
Female athymic nude mice (nu/nu, 5-6 weeks old) or C57BL/6 male mice were purchased from the National Cancer Institute and allowed to acclimatize to local conditions for at least one week. Animals were provided water and standard chow ad libitum, and were kept on a 12 hour light/dark cycle. All experiments followed protocols approved by the University of Minnesota Research Animal Resources Ethical Committee. Exponentially growing MA148 human ovarian carcinoma cells, kindly provided by Prof. Ramakrishnan (Dings et al., Cancer Res 63, 382-385 (2003)), and B16F10 murine melanoma cells, kindly provided by Prof. Fidler, were cultured in RPM1 1640 medium (Life Technologies, Grand Island, N.Y.) (van der Schaft, et al., Faseb J 16, 1991-1993 (2002)). This medium was supplemented with 10% fetal bovine serum and 1% penicillin/streptomycin (Cellgro, Mediatech, Washington, D.C.) at 37° C. and 5% CO2. 100 μL of this tumor cell suspension (2×10^7 MA148 cells/ml and 2×10^6 B16F10 cells/ml) was then injected subcutaneously into the right hind flank of each mouse (athymic or C57BL/6, respectively).
Tumors were allowed to grow to an average size of at least 50 mm^3 before treatment was initiated, and animals were randomized prior to the initiation of treatment. Treatment was administered in one of two ways: s.c. from osmotic mini-pumps, and i.p. injection. Osmotic mini-pumps (Durect, Cupertino, Calif.) were implanted subcutaneously in the left flank of mice, and concentrated solutions of calixarene analogs or βpep-25 were formulated in PBS containing 30% (v/v) DMSO such that the 14-day or 28-day treatment period would be covered by implantation of a single pump. In each study, control groups of animals were administered either PBS (30% DMSO v/v) or PBS containing human serum albumin to control for protein content. […]

[4] = Hematocrit levels, study with B16 tumors in immune competent mice; format: in vivo; settings: vehicle 51±1.4
Procedure: As an indirect measurement of general toxicity, body weights of mice were monitored twice weekly, using a digital balance (Ohaus Florham, N.J.). To determine hematocrit levels, blood samples were extracted by tail vein bleedings one day after terminating treatment, and blood was collected in heparinized micro-hematocrit capillary lubes (Fisher Pittsburgh, Pa.). Samples were spun down for 10 minutes in a micro-hematocrit centrifuge (Clay-Adams; NY), and the amount of hematocrit was determined using an international microcapillary reader (IEC; Needham, Mass.).

[5] = tested on: LPS from S. typhimurium; assay: LPS neutralization assay (Limulus amoebocyte lysate, QCL-1000); format: biochemical, Salmonella typhimurium; settings: read-out: IC50 values (μM) for LPS binding, Salmonella
Method in brief: as §1

[6] = tested on: LPS from S. marcascens; assay: as above; format: biochemical, Serratia marcascens; settings: read-out: IC50 values (μM) for LPS binding, Serratia
Method in brief: as §1

[7] = Table 3, errors estimated ±30%, read-out: IC50 values (μM) for LPS binding, E. coli 055:B5
[8] = 10 mg/kg/day s.c. osmotic mini-pump

Row | Compound | IC50 ([1]; Table 3, errors estimated ±30%) [µM] | IC50 [2, 7] [µM] | tumor growth inhibition ([3]; 2.7 mg/kg/day s.c. osmotic mini-pump) | tumor growth inhibition [3, 8] | MA148 tumor growth (in words) ([3]; trifluoroacetic acid salt) | Hematocrit levels ±SD [4] | IC50 ([5]; Table 3, errors estimated ±30%) [µM] | IC50 ([6]; Table 3, errors estimated ±30%) [µM] | IC50 ([1]; Table 2) [µM] | IC50 ([2]; Table 2, read-out: IC50 values (μM) for LPS binding, E. coli 055:B4) [µM] | tumor growth inhibition ([3]; 2.4 mg/kg/day s.c. osmotic mini-pump) | MA148 tumor growth (in words) [3] | MA148 tumor growth (in words) ([3]; listed as KM0118 (40)) | IC50 ([5]; Table 2) [µM] | IC50 ([6]; Table 2) [µM]
1 | 5,11,17,23-Tetra-tert-butyl-25,27-bis(2-guanidinoethoxy)-26,28-dihydroxy calix[4]arene trifluoroacetic acid salt [Compound 27] | > 5 | > 5 | about 65% | about 65% | inhibits MA148 tumor growth; also recorded: significantly inhibited | 49±1.4 percentage red blood cells | 4.4 | > 5 |  |  |  |  |  |  | 
2 | CN(C)CCNC(=O)COc1c2cccc1Cc1cccc(c1OCC(=O)NCCN(C)C)Cc1cccc(c1OCC(=O)NCCN(C)C)Cc1cccc(c1OCC(=O)NCCN(C)C)C2 [Compound 40] | > 5 | 3.4 |  | 81% |  | 53±0 percentage red blood cells | > 5 | > 5 | > 5 | 3.4 | about 65% | inhibition of MA148 tumor growth | significantly inhibited | > 5 | > 5
